Results: patent publication US11000033B2, “Ketone or oxime compound, and herbicide” (NISSAN CHEMICAL CORPORATION, priority 2014, dated 2021)

Experiments:
Format in all cases: in vivo
[1] = system: Echinochloa crus-galli var. crus-galli; assay: Test Example 3: herbicidal effect by foliage application, Wagner pot (symbol H); settings: application herbicide amount 320 g/ha
In short: (§1)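 Scoring took place 3 weeks after application, using fixed criteria. Plants had been raised from seed for 14 days at 25 to 30 °C in submerged alluvial soil before a diluted emulsion of the test compound was sprayed uniformly on the leaves.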

Cyperus difformis = assay: Test Example 3: herbicidal effect by foliage application, Wagner pot (symbol E); settings: application herbicide amount 320 g/ha
In short: as §1

[2] = system: Echinochloa crus-galli var. crus-galli; assay: Test Example 4: herbicidal effect by soil treatment (symbol H); settings: application herbicide amount 320 g/ha
In short: (§2)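 Seeds were sown in sterilized diluvial soil, covered with about 1.5 cm of soil, and the soil surface was sprayed with a water-diluted emulsion of the compound at a predetermined rate. Plants grew in a greenhouse at 25° C. to 30° C.; effects were scored visually 3 weeks after application.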

Lolium multiflorum Lam. [3] = assay: Test Example 4: herbicidal effect by soil treatment (symbol K); settings: application herbicide amount 320 g/ha
In short: as §2

Apera spica-venti = assay: Test Example 4: herbicidal effect by soil treatment (symbol L); settings: application herbicide amount 320 g/ha
In short: as §2

corn = assay: Test Example 4: effect on crop by soil treatment (symbol c); settings: application herbicide amount 320 g/ha
In short: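 Soil-treatment setup: crop and weed seeds were spot-sown into sterilized diluvial soil, then buried beneath approximately 1.5 cm of it, and the boxes were housed in a 25–30° C. greenhouse.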

rice = assay: Test Example 4: effect on crop by soil treatment (symbol b); settings: application herbicide amount 320 g/ha
In short: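 Plants grew in a 25° C. to 30° C. greenhouse after spot-sowing of seeds, including beet, rapeseed, wheat and rice, into sterilized diluvial soil under roughly 1.5 cm of cover soil.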

Setaria viridis = assay: Test Example 5: herbicidal effect by foliage application, plastic box (symbol G); settings: 320 g/ha, 3 weeks after application
In short: (§3)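 Greenhouse foliar test: seedlings at 14 days, grown 25° C. to 30° C. in sterilized diluvial soil; compound applied as an aqueous dilution of an emulsion; response read 3 weeks after spraying.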

Avena fatua = assay: Test Example 5: herbicidal effect by foliage application, plastic box (symbol I); settings: 320 g/ha, 3 weeks after application
In short: as §3

Alopecurus myosuroides = assay: Test Example 5: herbicidal effect by foliage application, plastic box (symbol J); settings: 320 g/ha, 3 weeks after application
In short: as §3

Lolium multiflorum Lam. [4] = assay: Test Example 5: herbicidal effect by foliage application, plastic box (symbol K); settings: 320 g/ha, 3 weeks after application
In short: as §3

Stellaria media = assay: Test Example 5: herbicidal effect by foliage application, plastic box (symbol P); settings: 320 g/ha, 3 weeks after application
In short: as §3

Veronica persica = assay: Test Example 5: herbicidal effect by foliage application, plastic box (symbol R); settings: 320 g/ha, 3 weeks after application
In short: as §3

rice plant = assay: Test Example 5: effect on crop by foliage application, plastic box (symbol b); settings: 320 g/ha, 3 weeks after application
In short: (§4)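 Greenhouse culture at 25° C. to 30° C. followed spot-like sowing into sterilized diluvial soil, with seed covered by roughly 1.5 cm of soil.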

wheat = assay: Test Example 5: effect on crop by foliage application, plastic box (symbol e); settings: 320 g/ha, 3 weeks after application
In short: as §4

Scirpus juncoides = assay: Test Example 2: herbicidal activity, application during weed generation in submerged conditions (symbol B); settings: Table 23; application herbicide amount 320 g/ha; grade 0-5 by criteria of Test Example 1
In short: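 Read-out: herbicidal effect on each species rated on a visual scale 3 weeks after treatment. Plants were raised together from seed in flooded alluvial soil (4 cm water) at 25° C. to 30° C. and treated at one to two leaves by water-surface application of diluted emulsion.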

CON=C(C)CC1CC(O)=C(c2c(C)cc(C(=O)OC)cc2C)C1=O (stereo not drawn) [6-023]
herbicidal effect on H (Echinochloa crus-galli var. crus-galli), grade 0-5 [1]: 5 (Herbicidal ratio of 90% or more (almost completely withered))
herbicidal effect on E, grade 0-5 (Cyperus difformis): 4 (Herbicidal ratio of 70% or higher and lower than 90%)
H: Echinochloa crus-galli var. crus-galli, herbicidal effect grade [2]: 0 (Herbicidal ratio of 5% or lower (almost no effect))
K: Lolium multiflorum Lam., herbicidal effect grade (Lolium multiflorum Lam. [3]): 5 (Herbicidal ratio of 90% or more (almost completely withered))
L: Apera spica-venti, herbicidal effect grade (Apera spica-venti): 4 (Herbicidal ratio of 70% or higher and lower than 90%)
c: corn, effect on crop grade (corn): 1 (Herbicidal ratio of 5% or higher and lower than 20%)
b: directly sowed rice plant, effect on crop grade (rice): 5 (Herbicidal ratio of 90% or more (almost completely withered))
G: Setaria viridis, herbicidal effect grade (Setaria viridis): 5 (Herbicidal ratio of 90% or more (almost completely withered))
I: Avena fatua, herbicidal effect grade (Avena fatua): 5 (Herbicidal ratio of 90% or more (almost completely withered))
J: Alopecurus myosuroides, herbicidal effect grade (Alopecurus myosuroides): 5 (Herbicidal ratio of 90% or more (almost completely withered))
K: Lolium multiflorum Lam., herbicidal effect grade (Lolium multiflorum Lam. [4]): 5 (Herbicidal ratio of 90% or more (almost completely withered))
P: Stellaria media, herbicidal effect grade (Stellaria media): 0 (Herbicidal ratio of 5% or lower (almost no effect))
R: Veronica persica, herbicidal effect grade (Veronica persica): 1 (Herbicidal ratio of 5% or higher and lower than 20%)
b: directly sowed rice plant, effect on crop grade (rice plant): 5 (Herbicidal ratio of 90% or more (almost completely withered))
e: wheat, effect on crop grade (wheat): 3 (Herbicidal ratio of 40% or higher and lower than 70%)

CC(=O)CC1CC(OC(=O)C(C)(C)C)=C(c2c(C)cc(C)cc2C)C1=O (stereo not drawn) [2-018]
Herbicidal effect grade, B: Scirpus juncoides (Scirpus juncoides): 0 (Herbicidal ratio of 5% or lower (almost no effect))
herbicidal effect on H (Echinochloa crus-galli var. crus-galli), grade 0-5 [1]: 5 (Herbicidal ratio of 90% or more (almost completely withered))
herbicidal effect on E, grade 0-5 (Cyperus difformis): 5 (Herbicidal ratio of 90% or more (almost completely withered))
H: Echinochloa crus-galli var. crus-galli, herbicidal effect grade [2]: 5 (Herbicidal ratio of 90% or more (almost completely withered))
K: Lolium multiflorum Lam., herbicidal effect grade (Lolium multiflorum Lam. [3]): 5 (Herbicidal ratio of 90% or more (almost completely withered))
L: Apera spica-venti, herbicidal effect grade (Apera spica-venti): 2 (Herbicidal ratio of 20% or higher and lower than 40%)
c: corn, effect on crop grade (corn): 2 (Herbicidal ratio of 20% or higher and lower than 40%)
b: directly sowed rice plant, effect on crop grade (rice): 5 (Herbicidal ratio of 90% or more (almost completely withered))
G: Setaria viridis, herbicidal effect grade (Setaria viridis): 1 (Herbicidal ratio of 5% or higher and lower than 20%)
I: Avena fatua, herbicidal effect grade (Avena fatua): 0 (Herbicidal ratio of 5% or lower (almost no effect))
J: Alopecurus myosuroides, herbicidal effect grade (Alopecurus myosuroides): 1 (Herbicidal ratio of 5% or higher and lower than 20%)
K: Lolium multiflorum Lam., herbicidal effect grade (Lolium multiflorum Lam. [4]): 4 (Herbicidal ratio of 70% or higher and lower than 90%)
R: Veronica persica, herbicidal effect grade (Veronica persica): 0 (Herbicidal ratio of 5% or lower (almost no effect))
b: directly sowed rice plant, effect on crop grade (rice plant): 2 (Herbicidal ratio of 20% or higher and lower than 40%)
e: wheat, effect on crop grade (wheat): 0 (Herbicidal ratio of 5% or lower (almost no effect))

CON=C(C)CC1CC(O)=C(c2c(C)cc(C#CC3CC3)cc2C)C1=O (mixture of isomers) [6-010]
Herbicidal effect grade, B: Scirpus juncoides (Scirpus juncoides): 3 (Herbicidal ratio of 40% or higher and lower than 70%)
herbicidal effect on H (Echinochloa crus-galli var. crus-galli), grade 0-5 [1]: 5 (Herbicidal ratio of 90% or more (almost completely withered))
herbicidal effect on E, grade 0-5 (Cyperus difformis): 5 (Herbicidal ratio of 90% or more (almost completely withered))
H: Echinochloa crus-galli var. crus-galli, herbicidal effect grade [2]: 5 (Herbicidal ratio of 90% or more (almost completely withered))
K: Lolium multiflorum Lam., herbicidal effect grade (Lolium multiflorum Lam. [3]): 5 (Herbicidal ratio of 90% or more (almost completely withered))
L: Apera spica-venti, herbicidal effect grade (Apera spica-venti): 5 (Herbicidal ratio of 90% or more (almost completely withered))
c: corn, effect on crop grade (corn): 4 (Herbicidal ratio of 70% or higher and lower than 90%)
b: directly sowed rice plant, effect on crop grade (rice): 5 (Herbicidal ratio of 90% or more (almost completely withered))
G: Setaria viridis, herbicidal effect grade (Setaria viridis): 5 (Herbicidal ratio of 90% or more (almost completely withered))
I: Avena fatua, herbicidal effect grade (Avena fatua): 3 (Herbicidal ratio of 40% or higher and lower than 70%)
J: Alopecurus myosuroides, herbicidal effect grade (Alopecurus myosuroides): 5 (Herbicidal ratio of 90% or more (almost completely withered))
K: Lolium multiflorum Lam., herbicidal effect grade (Lolium multiflorum Lam. [4]): 4 (Herbicidal ratio of 70% or higher and lower than 90%)
P: Stellaria media, herbicidal effect grade (Stellaria media): 0 (Herbicidal ratio of 5% or lower (almost no effect))
b: directly sowed rice plant, effect on crop grade (rice plant): 5 (Herbicidal ratio of 90% or more (almost completely withered))
e: wheat, effect on crop grade (wheat): 4 (Herbicidal ratio of 70% or higher and lower than 90%)

CON=C(C)CC1CC(OCCSC)=C(c2c(C)cc(C)cc2C)C1=O (stereo not drawn) [1-011]
Herbicidal effect grade, B: Scirpus juncoides (Scirpus juncoides): 0 (Herbicidal ratio of 5% or lower (almost no effect))
herbicidal effect on H (Echinochloa crus-galli var. crus-galli), grade 0-5 [1]: 0 (Herbicidal ratio of 5% or lower (almost no effect))
herbicidal effect on E, grade 0-5 (Cyperus difformis): 0 (Herbicidal ratio of 5% or lower (almost no effect))
H (Echinochloa crus-galli var. crus-galli) herbicidal effect grade [2]: 0 (Herbicidal ratio of 5% or lower (almost no effect))
K (Lolium multiflorum Lam.) herbicidal effect grade (Lolium multiflorum Lam. [3]): 0 (Herbicidal ratio of 5% or lower (almost no effect))
L (Apera spica-venti) herbicidal effect grade (Apera spica-venti): 0 (Herbicidal ratio of 5% or lower (almost no effect))
c (corn) effect on crop grade (corn): 0 (Herbicidal ratio of 5% or lower (almost no effect))
b (directly sowed rice plant) effect on crop grade (rice): 0 (Herbicidal ratio of 5% or lower (almost no effect))
G: Setaria viridis, herbicidal effect grade (Setaria viridis): 0 (Herbicidal ratio of 5% or lower (almost no effect))
I: Avena fatua, herbicidal effect grade (Avena fatua): 0 (Herbicidal ratio of 5% or lower (almost no effect))
J: Alopecurus myosuroides, herbicidal effect grade (Alopecurus myosuroides): 4 (Herbicidal ratio of 70% or higher and lower than 90%)
K: Lolium multiflorum Lam., herbicidal effect grade (Lolium multiflorum Lam. [4]): 5 (Herbicidal ratio of 90% or more (almost completely withered))
R: Veronica persica, herbicidal effect grade (Veronica persica): 0 (Herbicidal ratio of 5% or lower (almost no effect))
b: directly sowed rice plant, effect on crop grade (rice plant): 2 (Herbicidal ratio of 20% or higher and lower than 40%)
e: wheat, effect on crop grade (wheat): 0 (Herbicidal ratio of 5% or lower (almost no effect))

CCc1cc(Br)cc(C)c1C1=C(O)CC(C(C(=O)OC)C(C)=NOC)C1=O (stereo not drawn) [6-002]
Herbicidal effect grade, B: Scirpus juncoides (Scirpus juncoides): 0 (Herbicidal ratio of 5% or lower (almost no effect))
herbicidal effect on H (Echinochloa crus-galli var. crus-galli), grade 0-5 [1]: 4 (Herbicidal ratio of 70% or higher and lower than 90%)
herbicidal effect on E, grade 0-5 (Cyperus difformis): 0 (Herbicidal ratio of 5% or lower (almost no effect))
H: Echinochloa crus-galli var. crus-galli, herbicidal effect grade [2]: 2 (Herbicidal ratio of 20% or higher and lower than 40%)
K: Lolium multiflorum Lam., herbicidal effect grade (Lolium multiflorum Lam. [3]): 5 (Herbicidal ratio of 90% or more (almost completely withered))
L: Apera spica-venti, herbicidal effect grade (Apera spica-venti): 4 (Herbicidal ratio of 70% or higher and lower than 90%)
c: corn, effect on crop grade (corn): 0 (Herbicidal ratio of 5% or lower (almost no effect))
b: directly sowed rice plant, effect on crop grade (rice): 5 (Herbicidal ratio of 90% or more (almost completely withered))
G: Setaria viridis, herbicidal effect grade (Setaria viridis): 5 (Herbicidal ratio of 90% or more (almost completely withered))
I: Avena fatua, herbicidal effect grade (Avena fatua): 5 (Herbicidal ratio of 90% or more (almost completely withered))
J: Alopecurus myosuroides, herbicidal effect grade (Alopecurus myosuroides): 5 (Herbicidal ratio of 90% or more (almost completely withered))
K: Lolium multiflorum Lam., herbicidal effect grade (Lolium multiflorum Lam. [4]): 5 (Herbicidal ratio of 90% or more (almost completely withered))
R: Veronica persica, herbicidal effect grade (Veronica persica): 0 (Herbicidal ratio of 5% or lower (almost no effect))
b: directly sowed rice plant, effect on crop grade (rice plant): 5 (Herbicidal ratio of 90% or more (almost completely withered))
e: wheat, effect on crop grade (wheat): 0 (Herbicidal ratio of 5% or lower (almost no effect))
